Columns and labels:
[1] = Elimination rate constant in human using oromucosal-spray measured for 6 weeks
[2] = biological target: T1, Alpha-2B adrenergic receptor (Homo sapiens, UniProt P18089); test: Inhibition of alpha2B receptor (unknown origin)
T1 sequence (P18089 whole entry): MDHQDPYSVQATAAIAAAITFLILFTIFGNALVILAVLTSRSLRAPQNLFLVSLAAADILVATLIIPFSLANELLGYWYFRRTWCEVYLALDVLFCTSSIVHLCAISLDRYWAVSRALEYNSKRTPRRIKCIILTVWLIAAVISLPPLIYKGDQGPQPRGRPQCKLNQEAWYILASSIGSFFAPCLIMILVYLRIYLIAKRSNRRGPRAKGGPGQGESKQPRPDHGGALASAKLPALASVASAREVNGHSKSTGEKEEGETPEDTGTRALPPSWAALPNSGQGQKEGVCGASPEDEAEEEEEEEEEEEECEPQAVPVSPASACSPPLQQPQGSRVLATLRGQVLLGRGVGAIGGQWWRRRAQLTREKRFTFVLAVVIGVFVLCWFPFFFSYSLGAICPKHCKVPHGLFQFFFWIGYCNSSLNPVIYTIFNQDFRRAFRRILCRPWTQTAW

[3] = Apparent oral clearance in human in fed state at 5 to 20 mg using oromucosal-spray formulation cotreated with THC by GC-MS analysis; assay type: ADME; settings: in vivo, dose 5-20 mg
clinical = settings: human, in vivo, other: aerosol spray, 20 mg
Description: Elimination rate constant in human at 20 mg using aerosol spray measured for 6 weeks

[4] = biological target: Delta-type opioid receptor (Homo sapiens, UniProt P41143); test: Inhibition of delta-type opioid receptor receptor (unknown origin)
Delta-type opioid receptor, sequence (P41143 whole entry): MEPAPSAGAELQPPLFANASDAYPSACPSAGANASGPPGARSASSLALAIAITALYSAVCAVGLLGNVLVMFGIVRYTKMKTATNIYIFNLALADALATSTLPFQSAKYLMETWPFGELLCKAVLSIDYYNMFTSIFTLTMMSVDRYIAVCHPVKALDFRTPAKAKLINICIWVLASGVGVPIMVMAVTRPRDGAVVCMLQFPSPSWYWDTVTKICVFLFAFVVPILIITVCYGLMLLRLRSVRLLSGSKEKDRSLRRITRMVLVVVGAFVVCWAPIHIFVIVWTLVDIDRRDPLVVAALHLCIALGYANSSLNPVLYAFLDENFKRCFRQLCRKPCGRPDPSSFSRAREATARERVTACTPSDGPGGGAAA

[5] = Protein binding in human plasma incubated for 20 to 24 hrs; assay type: ADME, cell-free; settings: time 20-24 hrs, read-out: PPB (converted)
Cytochrome P450 3A7 = Cytochrome P450 3A7 (Homo sapiens, UniProt P24462); test: Mixed type inhibition of human recombinant CYP3A7 expressed in baculovirus-infected insect cells using diltiazem as substrate incubated for 30 mins followed by NADPH-generating system addition by Michaelis-Menten plot analysis; assay type: ADME
Cytochrome P450 3A7, sequence (P24462 whole entry): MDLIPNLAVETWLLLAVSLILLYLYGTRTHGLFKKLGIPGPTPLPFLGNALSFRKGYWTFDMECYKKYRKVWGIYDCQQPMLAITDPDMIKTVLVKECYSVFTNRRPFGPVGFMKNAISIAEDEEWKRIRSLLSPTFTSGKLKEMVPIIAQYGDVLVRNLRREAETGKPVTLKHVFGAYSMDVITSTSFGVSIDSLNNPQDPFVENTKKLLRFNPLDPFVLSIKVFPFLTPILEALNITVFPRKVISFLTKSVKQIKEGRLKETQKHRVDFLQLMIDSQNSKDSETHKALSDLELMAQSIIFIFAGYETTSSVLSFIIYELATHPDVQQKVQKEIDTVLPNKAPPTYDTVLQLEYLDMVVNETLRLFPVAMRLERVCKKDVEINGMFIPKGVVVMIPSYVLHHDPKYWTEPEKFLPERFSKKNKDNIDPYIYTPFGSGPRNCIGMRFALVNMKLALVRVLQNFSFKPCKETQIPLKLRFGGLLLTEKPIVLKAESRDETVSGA

[6] = biological target: T2, 5-hydroxytryptamine receptor 2C (Homo sapiens, UniProt P28335); test: Inhibition of 5-HT2C (unknown origin)
T2 sequence (P28335 whole entry): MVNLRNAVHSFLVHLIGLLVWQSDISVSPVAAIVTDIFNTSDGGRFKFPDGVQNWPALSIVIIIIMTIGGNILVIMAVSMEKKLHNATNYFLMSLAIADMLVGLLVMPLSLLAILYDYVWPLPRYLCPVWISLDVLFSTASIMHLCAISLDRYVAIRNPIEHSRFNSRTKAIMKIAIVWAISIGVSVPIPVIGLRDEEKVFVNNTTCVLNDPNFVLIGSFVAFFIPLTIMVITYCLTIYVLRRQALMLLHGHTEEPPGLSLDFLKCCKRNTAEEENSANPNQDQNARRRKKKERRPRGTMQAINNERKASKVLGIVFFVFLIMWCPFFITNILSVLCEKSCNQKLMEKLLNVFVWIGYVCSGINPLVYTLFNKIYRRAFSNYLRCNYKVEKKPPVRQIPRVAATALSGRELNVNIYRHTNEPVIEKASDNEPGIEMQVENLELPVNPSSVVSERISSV

[7] = Elimination half-life in human at 20 mg using aerosol spray measured for 6 weeks; assay type: ADME; settings: in vivo, inhaled_or_intranasal, 1008 h
[8] = Half-life in human at 20 mg via smoking measured after 0.05 to 72 hrs by gas chromatograph mass spectrometry; assay type: ADME; settings: in vivo, inhaled or intranasal, time 0.05-72 hrs

## C=C(C)[C@@H]1CCC(C)=C[C@H]1c1c(O)cc(CCCCC)cc1O [CANNABIDIOL]
[1]
  k el at 1008 h: 3.33e-05 s⁻¹
[2]
  Ki: 3.2 µM
[3]
  CL/F: 8880 mL/min
clinical
  k el at 1008 h: 0.000119 s⁻¹
[4]
  Ki: 6.4 µM
[5]
  fraction unbound: 0.1
Cytochrome P450 3A7
  Ki: 12.3 µM
[6]
  Ki: 1.1 µM
[7]
  beta t1/2: 2 h
[8]
  half-life: 31 h
